# Source: PubChem BioAssay AID248 (DTP/NCI, 2004)
# Values joined by “and” are separate entries in the source; they are usually repeats but may differ in a detail not shown here. Equal entries are not always repeated. Toxic doses and inconclusive results are not listed.
# Tested on: L1210 leukemia ip in BDF1 mice, survival T/C
# Experiment: NCI In Vivo Anticancer Drug Screen. Data for tumor model L1210 Leukemia (intraperitoneal) in B6D2F1 (BDF1) mice
# Details: endpoint: mean survival time, higher = longer survival
# Method in brief: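 Transplanted-tumor mice were given test agent; controls received vehicle only. Survival readings from the two groups were divided (treated over control).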
# [1] = dose: 100.0 mg/kg/injection, schedule: Q04DX003 (ip), vehicle: saline with Tween-80
# [2] = dose: 200.0 mg/kg/injection, schedule: Q04DX003 (ip), vehicle: saline with Tween-80
# [3] = dose: 400.0 mg/kg/injection, schedule: Q04DX003 (ip), vehicle: saline with Tween-80
# [4] = dose: 50.0 mg/kg/injection, schedule: Q01DX001 (ip), vehicle: saline
smiles,measurement,setting,value
O=C(COc1ccc(Cl)cc1Cl)NNc1ccc([N+](=O)[O-])cc1,T/C,"dose: 100.0 mg/kg/injection, schedule: Q04DX002 (ip), vehicle: saline",100 % of control
same,T/C,"dose: 200.0 mg/kg/injection, schedule: Q04DX002 (ip), vehicle: saline",92 % of control
same,T/C,"dose: 400.0 mg/kg/injection, schedule: Q04DX002 (ip), vehicle: saline",88 % of control
Cc1cc2c(cc1C)/C(=N\O)CCCC2,T/C,[1],110 % of control
same,T/C,[2],92 % of control
same,T/C,[3],94 % of control
Nc1ccc(I)cc1,T/C,[1],104 % of control
same,T/C,[2],109 % of control
Cc1cc(SCC(=O)O)sc1C,T/C,"dose: 100.0 mg/kg/injection, schedule: Q04DX002 (ip), vehicle: Klucel (hydroxypropylcellulose) (HPC)",92 % of control
same,T/C,"dose: 200.0 mg/kg/injection, schedule: Q04DX002 (ip), vehicle: Klucel (hydroxypropylcellulose) (HPC)",107 % of control
same,T/C,"dose: 400.0 mg/kg/injection, schedule: Q04DX002 (ip), vehicle: Klucel (hydroxypropylcellulose) (HPC)",107 % of control
CC(O)C(C)(C)C(O)C(=O)NCCSc1ccc(Cl)cc1 (stereo not drawn),T/C,"dose: 100.0 mg/kg/injection, schedule: Q01DX001 (ip), vehicle: acetone",104 % of control
same,T/C,"dose: 200.0 mg/kg/injection, schedule: Q01DX001 (ip), vehicle: acetone",104 % of control
same,T/C,"dose: 400.0 mg/kg/injection, schedule: Q01DX001 (ip), vehicle: acetone",102 % of control
CC(Cc1ccccc1)Nc1ccccc1 (stereo not drawn),T/C,[4],93 % of control
same,T/C,"dose: 100.0 mg/kg/injection, schedule: Q01DX001 (ip), vehicle: saline",100 % of control
same,T/C,"dose: 200.0 mg/kg/injection, schedule: Q01DX001 (ip), vehicle: saline",93 % of control
same,T/C,"dose: 400.0 mg/kg/injection, schedule: Q01DX001 (ip), vehicle: saline",93 % of control
COC(=O)c1[nH]cnc1N1CC[N+](CCCl)=N1,T/C,"dose: 37.5 mg/kg/injection, schedule: Q01DX009 (ip), vehicle: saline",116 % of control
same,T/C,"dose: 37.5 mg/kg/injection, schedule: Q04DX003 (ip), vehicle: saline",100 % of control
same,T/C,"dose: 75.0 mg/kg/injection, schedule: Q01DX001 (ip), vehicle: saline",98 % of control
same,T/C,"dose: 75.0 mg/kg/injection, schedule: Q01DX009 (ip), vehicle: saline",95 % of control
same,T/C,"dose: 75.0 mg/kg/injection, schedule: Q04DX003 (ip), vehicle: saline",107 % of control
same,T/C,"dose: 150.0 mg/kg/injection, schedule: Q01DX001 (ip), vehicle: saline",100 % of control
same,T/C,"dose: 150.0 mg/kg/injection, schedule: Q01DX009 (ip), vehicle: saline",103 % of control
same,T/C,"dose: 150.0 mg/kg/injection, schedule: Q04DX003 (ip), vehicle: saline",102 % of control
CN(C)/N=N/c1nc(Cc2ccccc2)[nH]c1C(N)=O,T/C,"dose: 100.0 mg/kg/injection, schedule: Q01DX009 (ip), vehicle: Klucel (hydroxypropylcellulose) (HPC)",108 % of control
same,T/C,"dose: 177.0 mg/kg/injection, schedule: Q01DX009 (ip), vehicle: Klucel (hydroxypropylcellulose) (HPC)",116 % of control
same,T/C,"dose: 200.0 mg/kg/injection, schedule: Q01DX009 (ip), vehicle: Klucel (hydroxypropylcellulose) (HPC)",112 % of control
same,T/C,"dose: 266.0 mg/kg/injection, schedule: Q01DX009 (ip), vehicle: Klucel (hydroxypropylcellulose) (HPC)",122 % of control
same,T/C,"dose: 266.0 mg/kg/injection, schedule: Q04DX003 (ip), vehicle: Klucel (hydroxypropylcellulose) (HPC)",109 % of control
same,T/C,"dose: 400.0 mg/kg/injection, schedule: Q01DX009 (ip), vehicle: Klucel (hydroxypropylcellulose) (HPC)",155 % of control
same,T/C,"dose: 400.0 mg/kg/injection, schedule: Q04DX003 (ip), vehicle: Klucel (hydroxypropylcellulose) (HPC)",109 % of control
same,T/C,"dose: 600.0 mg/kg/injection, schedule: Q04DX003 (ip), vehicle: Klucel (hydroxypropylcellulose) (HPC)",106 % of control
[Cl][Sn]([Cl])([c]1ccccc1)[c]1ccccc1.c1ccncc1,T/C,"dose: 25.0 mg/kg/injection, schedule: Q01DX009 (ip), vehicle: saline",111 % of control
same,T/C,"dose: 50.0 mg/kg/injection, schedule: Q01DX009 (ip), vehicle: saline",114 % of control
same,T/C,"dose: 100.0 mg/kg/injection, schedule: Q01DX009 (ip), vehicle: saline",96 % of control
Cc1ccc(S(=O)(=O)Nc2cc(C)cc(CCNC=O)c2C)cc1,T/C,"dose: 50.0 mg/kg/injection, schedule: Q01DX001 (ip), vehicle: carboxymethylcellulose (CMC)",114 % of control
same,T/C,"dose: 100.0 mg/kg/injection, schedule: Q01DX001 (ip), vehicle: carboxymethylcellulose (CMC)",109 % of control
same,T/C,"dose: 200.0 mg/kg/injection, schedule: Q01DX001 (ip), vehicle: carboxymethylcellulose (CMC)",95 % of control
same,T/C,"dose: 400.0 mg/kg/injection, schedule: Q01DX001 (ip), vehicle: carboxymethylcellulose (CMC)",93 % of control
NC(=S)C(=S)NCCO,T/C,"dose: 100.0 mg/kg/injection, schedule: Q01DX009 (ip), vehicle: saline with Tween-80",103 % of control
same,T/C,[1],100 % of control
same,T/C,"dose: 200.0 mg/kg/injection, schedule: Q01DX009 (ip), vehicle: saline with Tween-80",94 % of control
same,T/C,[2],93 % of control
same,T/C,"dose: 400.0 mg/kg/injection, schedule: Q01DX009 (ip), vehicle: saline with Tween-80",100 % of control
same,T/C,[3],93 % of control
O=C1C(=O)c2ccccc2C(O)=C1CC=C(Cl)Cl,T/C,"dose: 6.2 mg/kg/injection, schedule: Q01DX009 (ip), vehicle: water",94 % of control
same,T/C,"dose: 6.25 mg/kg/injection, schedule: Q01DX001 (ip), vehicle: saline",97 % of control
same,T/C,"dose: 12.5 mg/kg/injection, schedule: Q01DX001 (ip), vehicle: saline",106 % of control
same,T/C,"dose: 12.5 mg/kg/injection, schedule: Q01DX001 (oral), vehicle: saline",97 % of control
same,T/C,"dose: 12.5 mg/kg/injection, schedule: Q01DX009 (ip), vehicle: water",100 % of control and 96 % of control
same,T/C,"dose: 12.5 mg/kg/injection, schedule: Q03HX024 (ip), vehicle: water",89 % of control
same,T/C,"dose: 12.5 mg/kg/injection, schedule: Q04DX003 (ip), vehicle: water",94 % of control
same,T/C,"dose: 12.5 mg/kg/injection, schedule: Q08DX002 (ip), vehicle: water",98 % of control
same,T/C,"dose: 25.0 mg/kg/injection, schedule: Q01DX001 (ip), vehicle: saline",104 % of control
same,T/C,"dose: 25.0 mg/kg/injection, schedule: Q01DX001 (oral), vehicle: saline",104 % of control
same,T/C,"dose: 25.0 mg/kg/injection, schedule: Q01DX009 (ip), vehicle: water",102 % of control and 96 % of control
same,T/C,"dose: 25.0 mg/kg/injection, schedule: Q03HX016 (ip), vehicle: water",89 % of control
same,T/C,"dose: 25.0 mg/kg/injection, schedule: Q03HX024 (ip), vehicle: water",90 % of control
same,T/C,"dose: 25.0 mg/kg/injection, schedule: Q04DX003 (ip), vehicle: water",95 % of control
same,T/C,"dose: 25.0 mg/kg/injection, schedule: Q08DX002 (ip), vehicle: water",95 % of control
same,T/C,"dose: 25.0 mg/kg/injection, schedule: Q## X008 (ip), vehicle: water",91 % of control
same,T/C,[4],106 % of control
same,T/C,"dose: 50.0 mg/kg/injection, schedule: Q01DX001 (ip), vehicle: water",102 % of control
same,T/C,"dose: 50.0 mg/kg/injection, schedule: Q01DX001 (oral), vehicle: saline",98 % of control
same,T/C,"dose: 50.0 mg/kg/injection, schedule: Q01DX009 (ip), vehicle: water",113 % of control and 100 % of control
same,T/C,"dose: 50.0 mg/kg/injection, schedule: Q03HX016 (ip), vehicle: water",91 % of control
same,T/C,"dose: 50.0 mg/kg/injection, schedule: Q03HX024 (ip), vehicle: water",96 % of control
same,T/C,"dose: 50.0 mg/kg/injection, schedule: Q04DX003 (ip), vehicle: water",97 % of control
same,T/C,"dose: 50.0 mg/kg/injection, schedule: Q08DX002 (ip), vehicle: water",92 % of control
same,T/C,"dose: 50.0 mg/kg/injection, schedule: Q## X008 (ip), vehicle: water",88 % of control
same,T/C,"dose: 75.0 mg/kg/injection, schedule: Q03HX024 (ip), vehicle: water",90 % of control
same,T/C,"dose: 75.0 mg/kg/injection, schedule: Q04DX003 (ip), vehicle: water",95 % of control
same,T/C,"dose: 100.0 mg/kg/injection, schedule: Q01DX001 (oral), vehicle: saline",97 % of control and 106 % of control
same,T/C,"dose: 100.0 mg/kg/injection, schedule: Q03HX016 (ip), vehicle: water",88 % of control
same,T/C,"dose: 100.0 mg/kg/injection, schedule: Q03HX024 (ip), vehicle: water",92 % of control
same,T/C,"dose: 100.0 mg/kg/injection, schedule: Q08DX002 (ip), vehicle: water",92 % of control
same,T/C,"dose: 100.0 mg/kg/injection, schedule: Q## X008 (ip), vehicle: water",92 % of control
same,T/C,"dose: 200.0 mg/kg/injection, schedule: Q03HX016 (ip), vehicle: water",90 % of control
same,T/C,"dose: 200.0 mg/kg/injection, schedule: Q## X008 (ip), vehicle: water",94 % of control
C=C(C)C(=O)O (tested in a mixture with another compound),T/C,"dose: 100.0 mg/kg/injection, schedule: Q01DX Z (ip), vehicle: saline",105 % of control
same,T/C,"dose: 200.0 mg/kg/injection, schedule: Q01DX Z (ip), vehicle: saline",89 % of control
